Where a name gives a salt, the structure may show the parent alone. Read-outs that look alike come from different tables or passages of the source.
What was measured:
HPV16 pseudoviruses = assay: microbe, parasite or virus in culture; type: cell-based; details: Human papillomavirus 16, HEK-293T, 48 h
Description: (§1) FIG. 1. High throughout screen (HTS) for identifying inhibitors of HPV infection. Shown is a schematic showing basic steps in the HTS. […] Briefly, HPV16 pseudoviruses containing the SEAP reporter genes are analyzed for their ability to infect as judged by the levels of secreted alkaline phosphatase in the tissue culture supernatant (light grey arrows). Cell viability was assessed in parallel on the same wells (dark grey arrows). In the specific HTS carried out in this study, the compounds were added at 3 uM/1% DMSO final concentration (black arrow) 4 hours prior to infection.
(§2) After incubation at 37° C. for 24 hrs, 35 μL of media was removed. […] Cells were incubated at 37° C. for 48 hrs. 2.5 μL of media was collected for SEAP assay using a PHOSPHA-LIGHT chemiluminescent alkaline phosphatase assay (Applied Biosystems). Cell viability was determined using the CellTiter Glo Luminescent Cell Viability Assay™ (Promega).

in vitro = details: human, Viability (CelTiter Glow)
Description: as §1, §2

[1] = read-out: Infectivity (SEAP Activity), 3 μM HTS standard concentration, 293T cells, 48 hrs
[2] = read-out: Infectivity vs. viability, 3 μM HTS standard concentration, ratio infectivity/viability

For COc1ccc(N(CC(=O)Nc2ccc(C(C)C)cc2)S(=O)(=O)c2ccccc2)cc1Cl [Compound 6186930, N~2~-(3-chloro-4-methoxyphenyl)-N~1~-(4-isopropylphenyl)-N~2~-(phenylsulfonyl)glycinamide], the activity at 3 µM (HPV16 pseudoviruses; [1]) was 37.9%, the activity at 3 µM (HPV16 pseudoviruses; [2]) was 33.5% and the viability at 52 h, 3 μM (in vitro) was 113%.

Work on O=C(NCc1ccccn1)C(=O)Nc1ccc([N+](=O)[O-])cc1 [Compound 6198885, N-(4-nitrophenyl)-N′-(2-pyridinylmethyl)ethanediamide] yielded an activity at 3 µM (HPV16 pseudoviruses; [1]) of 57.5%, an activity at 3 µM (HPV16 pseudoviruses; [2]) of 53.8% and a viability at 52 h, 3 μM (in vitro) of 107%.

COC(=O)C1=C(C)NC2=C(C(=O)c3ccccc32)C1c1ccc(OCc2ccc([N+](=O)[O-])cc2)c(Cl)c1 (stereo not drawn) [Compound 6202416, methyl 4-{3-chloro-4-[(4-nitrobenzyl)oxy]phenyl}-2-methyl-5-oxo-4,5-dihydro-1H-indeno[1,2-b]pyridine-3-carboxylat] gave an activity at 3 µM (HPV16 pseudoviruses; [1]) of 51.4%, an activity at 3 µM (HPV16 pseudoviruses; [2]) of 42% and a viability at 52 h, 3 μM (in vitro) of 123%.

In the case of CS(=O)(=O)N(CC(=O)Nc1cccc(Br)c1)c1ccc(Cl)cc1 [Compound 6218383, N~1~-(3-bromophenyl)-N~2~-(4-chlorophenyl)-N~2~-(methylsulfonyl)glycinamide], the activity at 3 µM (HPV16 pseudoviruses; [1]) is reported as 47.4%, the activity at 3 µM (HPV16 pseudoviruses; [2]) is reported as 46.9% and the viability at 52 h, 3 μM (in vitro) is reported as 101%.

In the case of CCc1ccccc1N(CC(=O)OC)S(C)(=O)=O [Compound 6226431, methyl N-(2-ethylphenyl)-N-(methylsulfonyl)glycinate], the activity at 3 µM (HPV16 pseudoviruses; [1]) is reported as 62.8%, the activity at 3 µM (HPV16 pseudoviruses; [2]) is reported as 55.2% and the viability at 52 h, 3 μM (in vitro) is reported as 114%.

Cc1cccc(C=C2C(=O)NN(c3ccccc3)C2=O)c1 [Compound 6233808, 4-(3-methylbenzylidene)-1-phenyl-3,5-pyrazolidinedione] showed an activity at 3 µM (HPV16 pseudoviruses; [1]) of 58.5%, an activity at 3 µM (HPV16 pseudoviruses; [2]) of 50.2% and a viability at 52 h, 3 μM (in vitro) of 117%.

For CC1CCc2c(sc(NC(=O)c3ccccc3)c2C(N)=O)C1 (stereo not drawn) [Compound 6239347, 2-(benzoylamino)-6-methyl-4,5,6,7-tetrahydro-1-benzothiophene-3-carboxamide], the activity at 3 µM (HPV16 pseudoviruses; [1]) was 55.1%, the activity at 3 µM (HPV16 pseudoviruses; [2]) was 40.5% and the viability at 52 h, 3 μM (in vitro) was 136%.

In the case of O=C(NCc1c(Cl)cccc1Oc1ccccc1)Nc1ccc(F)cc1 [HTS 04313, N-(2-chloro-6-phenoxybenzyl)-N′-(4-fluorophenyl)urea], the activity at 3 µM (HPV16 pseudoviruses; [1]) is reported as 36.4%, the activity at 3 µM (HPV16 pseudoviruses; [2]) is reported as 42.7% and the viability at 52 h, 3 μM (in vitro) is reported as 85.3%.

For N#CCCN1CCCN(CCC#N)CCN(CCC#N)CCCN(CCC#N)CC1 [JFD 02931, 3-[4,8,11-tri(2-cyanoethyl)-1,4,8,11-tetraazacyclotetradecanyl]propanenitrile], the activity at 3 µM (HPV16 pseudoviruses; [1]) was 46.7%, the activity at 3 µM (HPV16 pseudoviruses; [2]) was 46.7% and the viability at 52 h, 3 μM (in vitro) was 99.9%.

O=C(CCSc1ccc(C(F)(F)F)cc1)c1ccco1 [MWP 01152, 1-furan-2-yl-3-[4-(trifluoromethyl)phenyl]sulfanylpropan-1-one] gave an activity at 3 µM (HPV16 pseudoviruses; [1]) of 57.8%, an activity at 3 µM (HPV16 pseudoviruses; [2]) of 56.1% and a viability at 52 h, 3 μM (in vitro) of 103%.

Work on CC(=O)Oc1ccc(OC(C)=O)c2c1C1C=CC2CC1 [NRB 00571, 6-(acetyloxy)tricyclo[6.2.2.0~2,7~]dodeca-2(7),3,5,9-tetraen-3-yl acetate] yielded an activity at 3 µM (HPV16 pseudoviruses; [1]) of 49.3%, an activity at 3 µM (HPV16 pseudoviruses; [2]) of 45.5% and a viability at 52 h, 3 μM (in vitro) of 108%.

CCNS(=O)(=O)c1ccc(-c2oc3cc(S(=O)(=O)NCC)ccc3c2Cl)cc1 [NRB 00942, 3-chloro-N-ethyl-2-[4-(ethylsulfamoyl)phenyl]-1-benzofuran-6-sulfonamide] showed an activity at 3 µM (HPV16 pseudoviruses; [1]) of 37.7%, an activity at 3 µM (HPV16 pseudoviruses; [2]) of 37.8% and a viability at 52 h, 3 μM (in vitro) of 99.7%.

O=C1C(=Cc2ccccc2)CCCC1CN1CCOCC1 (stereo not drawn) [NRB 01540, 2-benzylidene-6-(morpholinomethyl)cyclohexan-1-one hydrochloride] gave an activity at 3 µM (HPV16 pseudoviruses; [1]) of 50.5%, an activity at 3 µM (HPV16 pseudoviruses; [2]) of 49.9% and a viability at 52 h, 3 μM (in vitro) of 101%.

In the case of Oc1ccccc1C=NNc1nc2c(Cl)cc(Cl)cc2s1 [RF 02710, 2-hydroxybenzaldehyde N-(4,6-dichloro-1,3-benzothiazol-2-yl)hydrazone], the activity at 3 µM (HPV16 pseudoviruses; [1]) is reported as 34.6%, the activity at 3 µM (HPV16 pseudoviruses; [2]) is reported as 36.4% and the viability at 52 h, 3 μM (in vitro) is reported as 94.9%.

ON=Cc1ccc(Cl)s1 [SEW 06085, 5-chlorothiophene-2-carbaldehyde oxime] showed an activity at 3 µM (HPV16 pseudoviruses; [1]) of 54.9%, an activity at 3 µM (HPV16 pseudoviruses; [2]) of 53.2% and a viability at 52 h, 3 μM (in vitro) of 103%.

From patent US9949980B2, “Drugs to prevent HPV infection” (Wisconsin Alumni Research Foundation, priority 2008, dated 2018)
